In patent publication US5726181A, “Formulations and compositions of poorly water soluble camptothecin derivatives” (BioNumerik Pharmaceuticals, Inc., priority 1995, dated 1998):
Values after ≈ are worked out from the molar mass of the structure shown. “Also recorded” adds a separate entry of the source. Where two headings read alike, the source gives them in different places.

Legend:
[1] = cited from earlier work
[2] = system: mice; settings: more toxic than SCPT; cited from earlier work
[3] = Solubility of camptothecin in various solvents; type: physicochemical; settings: for solubility: read-out: Solubility, Concentration
[4] = system: DNA strand breaks; settings: cited from earlier work
[5] = system: human patients; settings: cited from earlier work
[6] = system: Topoisomerase I; settings: purified from calf thymus; cited from earlier work
[7] = system: L1210 cells; settings: cited from earlier work
[8] = animals; cited from earlier work
[9] = system: advanced gastrointestinal cancer; settings: cited from earlier work
[10] = system: topoisomerase I-DNA cleavable complex; settings: cited from earlier work
[11] = greater than carboxylate form; cited from earlier work
[12] = system: Topoisomerase I; settings: purified from human colon carcinoma cells; cited from earlier work
[13] = system: human patients with cancer; settings: Phase I and Phase II human trials; cited from earlier work
[14] = system: topoisomerase II; settings: cited from earlier work
[15] = Lactone form / chemical stability in formulation; type: physicochemical
[16] = system: malignant melanoma; settings: cited from earlier work
[17] = system: human patients; settings: cited from earlier work; remark: listed apart in the source
[18] = cited from earlier work; remark: listed apart in the source
[19] = oral vs intravenous solution; cited from earlier work
[20] = 90-360 mg/m^2 every 2 weeks, fifteen patients
[21] = 15 mg/m^2 × 5, 9 patients treated
[22] = 17 mg/m^2 × 5, 5 patients treated
[23] = 20 mg/m^2 × 5, 10 patients treated
[24] = 5-Day course (27 patients), 4 wks
[25] = 5-Day course (27 patients), 8 wks
[26] = 5-Day course (27 patients), 12 wks
[27] = single dose 110 mg/m^2, 2 patients treated
[28] = single dose 120 mg/m^2, 7 patients treated
[29] = single dose 180 mg/m^2, 9 patients treated
[30] = single-dose method (34 patients), 3 wks
[31] = single-dose method (34 patients), 6 wks
[32] = single-dose method (34 patients), 9 wks
[33] = single-dose method (34 patients), 12 wks

## CCc1c2c(nc3ccccc13)-c1cc3c(c(=O)n1C2)COC(=O)[C@]3(O)CC [7-ethyl camptothecin]
[1]; water
  Water solubility: less than 5 micrograms per milliliter of water

## CCc1c2c(nc3ccc(O)cc13)-c1cc3c(c(=O)n1C2)COC(=O)[C@]3(O)CC [7-ethyl-10-hydroxy camptothecin]
[1]; water
  Water solubility: less than 5 micrograms per milliliter of water

## CCC1(O)C(=O)OCc2c1cc1n(c2=O)Cc2cc3cc4c(cc3nc2-1)OCO4 (stereo not drawn) [10,11-Methylenedioxy camptothecin, 10,11-methylenedioxy camptothecin]
[1]; water
  Water solubility: less than 5 micrograms per milliliter of water

## CCC1(O)C(=O)OCc2c1cc1n(c2=O)Cc2cc3cc4c(cc3nc2-1)OCCO4 (stereo not drawn) [10,11-ethylenedioxy-camptothecin, 10,11-ethylenedioxy camptothecin]
[1]; water
  Water solubility: less than 5 micrograms per milliliter of water

## CC[C@@]1(O)C(=O)OCc2c1cc1n(c2=O)Cc2cc3ccccc3nc2-1 [Camptothecin, camptothecin]
[2]
  Toxicity of lactone form relative to SCPT: 10 fold
[3]; N-Methyl-2-pyrrolidinone (NMP)
  Solubility, Concentration: 15000 to 20000 µg/mL
[3]; benzyl alcohol, organic solvent or mixture, Benzyl alcohol
  solubility: 1670 µg/mL (≈ 4810 µM)
[3]; dimethylacetamide, organic solvent or mixture, Dimethylacetamide
  solubility: 5000 µg/mL (≈ 14400 µM)
[3]; dimethylisosorbide, organic solvent or mixture, Dimethylisosorbide
  solubility: 928 µg/mL (≈ 2660 µM)
[3]; ethanol, organic solvent or mixture, Ethanol
  solubility: 51 µg/mL (≈ 146 µM)
[3]; milli-q water
  solubility: 0.2 µg/mL (≈ 0.574 µM)
[3]; n-methyl-2-pyrrolidinone (nmp), organic solvent or mixture, N-Methyl-2-pyrrolidinone (NMP)
  solubility: > 15000 µg/mL
[3]; peg 300, organic solvent or mixture, PEG 300
  solubility: 706 µg/mL (≈ 2030 µM)
[3]; propylene glycol, organic solvent or mixture, Propylene glycol
  solubility: 281 µg/mL (≈ 807 µM)
[4]
  Protein-associated DNA single-strand breaks: induces protein-associated DNA single-strand breaks
[4]; in vitro cells
  Protein linkage of DNA strand breaks: Virtually all of the DNA strand breaks observed in vitro cells treated with camptothecin are protein linked
[5]; human, in vivo
  Renal excretion: excreted unchanged by the kidneys
[6]
  Inhibition of topoisomerase I: inhibited
[7]
  Protein-free DNA breaks: an increase in unexplained protein-free breaks
[8]
  Transport into bile: extremely active transport of camptothecin into bile
[9]; in vivo
  Clinical value in gastrointestinal cancer (conclusion): a drug of protean and unpredictable toxicity that has no clinical value in the management of gastrointestinal cancer
[10]
  Stabilization of the topoisomerase I cleavable complex, reversibility: readily reversible
[11]
  Anti-tumor activity of lactone relative to carboxylate form: greater than 10 fold
[12]
  Inhibition of topoisomerase I: inhibited
[13]
  Toxicity in early trials: unpredictable myelosuppression and hemorrhagic cystitis
[14]
  Effect on topoisomerase II: no effect on topoisomerase II
[1]; lactone form, pH of 2 to 6
  Water solubility: less than 5 micrograms in one milliliter o

## CN1CCCC1=O [NMP, N-methyl-2-pyrrolidinone]
[15]
  Chemical reactivity of NMP with HLCD: inert with respect to undesirable chemical reactions with HLCD; also recorded: chemically inert with respect to poorly water soluble camptothecins

## CC[C@@](O)(C(=O)O)c1cc2n(c(=O)c1CO)Cc1cc3ccccc3nc1-2 [SCPT]
[5]; 20 to 30 mg/m^2
  Bladder toxicity, dose limiting: dose limiting in three patients
[5]; 44 and 30 mg/m^2
  Bladder toxicity, additional patients: two additional patients
[5]; daily treatment, total dose of 100 mg/m^2
  Leukopenia, incidence: four of six patients
[5]; daily vs weekly treatment
  Leukopenia, duration: more prolonged after daily treatment than after weekly treatment
[5]; dose-limiting toxic effect
  Leukopenia: Reversible leukopenia was the major dose-limiting toxic effect
[5]; eight patients with measurable disease, 5-day courses at dose levels associated with toxicity
  Clinical benefit: No clinical benefit was observed
[5]; weekly courses, evaluable patients
  Clinical responses: two of ten patients
[16]; [20]
  50% or greater decrease in tumor diameter: None of the patients had a 50% or greater decrease in tumor diameter
  Transient tumor regression: Less pronounced transient tumor regression was noted in three patients
[16]; 90-360 mg/m^2 every 2 weeks
  Disease in remaining patients: no change or progression in their disease
[16]; fifteen patients
  Alopecia: 8 patients
  Diarrhea: 3 patients
  Hemorrhagic cystitis: 1 patients
  Myelosuppression: 11 patients
  Nausea and vomiting: 9 patients
[17]; 5 patients with impaired urinary excretion excluded, i.v., 2880 min
  Mean urine recovery of camptothecin, excluding patients with impaired urinary excretion: 22.8%
[17]; after i.v. drug administration
  Urinary appearance of unmetabolized camptothecin: unmetabolized camptothecin in high concentrations rapidly appeared in the urine
[17]; first 48 hours, i.v.
  Mean urine recovery of camptothecin: 17.4%
  Urine recovery of camptothecin (range): 3.6-38.9%
[17]; i.v.
  Time course of urinary drug excretion: most of the drug excretion occurring in the initial 12 hours
[17]; moderately dehydrated patients
  Sterile hemorrhagic cystitis: 3 patients
[9]; 11 mg/m^2 × 5, 2 patients treated
  No. of patients with Cystitis: 1 patients
[9]; [21]
  No. of patients with Cystitis: 4 patients
  No. of patients with Diarrhea: 1 patients
[9]; [22]
  No. of patients with Cystitis: 2 patients
  No. of patients with Diarrhea: 4 patients
[9]; [23]
  No. of patients with Cystitis: 6 patients
  No. of patients with Diarrhea: 4 patients
[9]; 22 mg/m^2 × 5, 1 patient treated
  No. of patients with Diarrhea: 1 patients
[9]; 3 months, 61 patients
  Improvement at 3 months: none showed improvement at 3 months
[9]; [24]
  Objective Responses: Improved: 1 patients
  Objective Responses: Stable: 12 patients
  Objective Responses: Worse: 14 patients
[9]; [25]
  Objective Responses: Stable: 7 patients
  Objective Responses: Worse: 20 patients
[9]; [26]
  Objective Responses: Stable: 6 patients
  Objective Responses: Worse: 21 patients
[9]; 5-Day course, P < 0.05
  Cystitis (% of 27 patients): 48%
[9]; Single dose
  Cystitis (% of 34 patients): 24%
[9]; after 2 months (8 or 9 weeks), 61 patients
  Partial objective improvement: only two of their 61 patients
[9]; at 3 wks only
  Patients with 25%-50% response: 3 patients
[9]; higher doses
  Diarrhea, severity and persistence: could be quite severe to the point of fecal incontinence and persistent for as long as 4 weeks
[9]; in vivo
  Onset of cystitis after treatment: 7 to 10 days
[9]; prolonged (5-day) vs single-dose schedule at a given total dose
  Severity of toxicity by schedule: more prolonged schedule produced more severe toxicity at a given total dose level
[9]; single dose 90 mg/m^2, 10 patients treated
  No. of patients with Cystitis: 1 patients
[9]; single dose 100 mg/m^2, 6 patients treated
  No. of patients with Cystitis: 2 patients
[9]; [27]
  No. of patients with Cystitis: 1 patients
  No. of patients with Diarrhea: 1 patients
[9]; [28]
  No. of patients with Cystitis: 2 patients
  No. of patients with Diarrhea: 4 patients
[9]; [29]
  No. of patients with Cystitis: 3 patients
  No. of patients with Diarrhea: 2 patients
[9]; [30]
  Objective Responses: Improved: 4 patients
  Objective Responses: Stable: 17 patients
  Objective Responses: Worse: 13 patients
[9]; [31]
  Objective Responses: Improved: 2 patients
  Objective Responses: Stable: 1i
  Objective Responses: Worse: 21 patients
[9]; [32]
  Objective Responses: Improved: 2 patients
  Objective Responses: Stable: 8 patients
  Objective Responses: Worse: 24 patients
[9]; [33]
  Objective Responses: Stable: 6 patients
  Objective Responses: Worse: 28 patients
[13]
  Antitumor activity in early trials: lack of consistent antitumor activity
  Toxicity in early trials: unpredictable and severe myelosuppression,gastrointestinal toxicity, hemorrhagic cystitis, and alopecia
[18]; 24 hours after SCPT, once daily×5, 6.5-20 mg/m^2/day
  Plasma camptothecin levels, relation to dose: plasma camptothecin levels have little relation to the dose given
[18]; patients with obvious renal disease excluded
  Severe toxic effects: Severe toxic effects including cystitis occurred

## COc1cc([C@@H]2c3cc4c(cc3[C@@H](O[C@@H]3O[C@@H]5CO[C@@H](C)O[C@H]5[C@H](O)[C@H]3O)[C@H]3COC(=O)[C@H]23)OCO4)cc(OC)c1O [etoposide]
[19]
  Bioavailability following oral administration: substantially equivalent to that achieved by intravenous administration
